Assay results as given in patent US9850247B2 (Almac Discovery Limited, priority 2013, dated 2017).

Experiments:
[1] = target: T1, Wee-1 kinase (Homo sapiens, UniProt P30291); assay: Measurement of Wee-1 kinase activity (ADP-Glo luminescent kit); type: biochemical
T1 construct: purchased Invitrogen PV3817
Procedure, shortened: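 Activated Wee-1 was pre-incubated 30 min at RT with compound in 40 mM Tris-HCl, 20 mM MgCl2, 0.1 mg/mL BSA and 2 mM DTT. The reaction was started with an aliquot of 2.0 μg/mL poly(Lys,Tyr 4:1) plus 30 μM ATP and run 1 h at RT. ADP-Glo luminescence gave IC50 by non-linear fit.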

[2] = tested on: phospho-cdc2 (Tyr15) in HT-29 cells; assay: Effect on phosphorylation of cdc2 at Tyr15, PathScan ELISA (Method 2); type: cell-based; conditions: Homo sapiens, 8 h, eight hours incubation, read-out: HT29 pCDC2 method 2
Experimental: Method 2: Determining the Effect of Compounds on the phosphorylation of cdc2 at Tyr15
The colorectal cancer cell lines HT-29 and HCT-116 were purchased from the ATCC and routinely maintained in McCoy's Medium (Invitrogen) supplemented with 10% Foetal Calf Serum.
The cells were trypsinised from their growing vessel and counted, 100 μL of cell suspension containing 6000 cells was pipetted into black 96 well Co-star plates and incubated overnight to allow adherence to the surface at a temperature of 37° C. and an atmosphere of 5% CO2. Test compounds were formulated in DMSO and diluted in foetal calf serum supplemented medium. Incubating medium was removed by aspiration and diluted drug supplemented medium added to each well.
The plate was returned to the incubator for an additional eight hours at 37° C. and an atmosphere of 5% CO2. Post incubation, the drug supplemented medium was aspirated from each well and the cells were washed once in ice-cold phosphate buffered saline (PBS). 100 μL of cell lysis buffer (Cell Signalling Technologies #9803) containing 20 mM Tris, 150 mM NaCl, 1 mM EDTA, 1 mM EGTA, 1% Triton-X100, 2.5 mM sodium pyrophosphate, 1 mM glycerophosphate, 1 mM Na3VO4 and 1 μg/mL leupeptin was added to each well of the 96 well plate and incubated at 4° C. for 30 min. The samples on the plate were snap frozen at −80° C. until required. Immediately before the continuation of the assay, the sample plate was thawed and centrifuged at 4° C. for 10 min and the supernatant transferred to secondary tubes or 96 well plate.
Cell supernatant was mixed in a ratio of 1:1 with sample dilutent buffer and vortexed for one minute. 100 μL of diluted sample was pipetted into pre-coated plates containing a rabbit polyclonal antibody for phospho-cdc2 (Tyr15) (Cell Signalling Technologies PathScan kit #7176). The plate was sealed and incubated overnight at 4° C.
The plate seal was removed and the well contents aspirated, followed by 3×5 min washes with 200 μL of diluted wash buffer. Between each wash the plate was tapped firmly onto blotting paper to ensure the removal of all kit solution. 100 μL of kit detection antibody was added to each well and the plate re-sealed and incubated at 37° C. for 1 h. Post incubation the plate was washed and processed in a similar manner to that previously described.
100 μL of horseradish peroxidise-linked secondary antibody was added to each test well, the plate sealed and incubated for thirty minutes at 37° C. Post incubation, the plate was washed as previously stated, followed by the addition of 100 μL of 3,3′,5,5′ tetramethylbenzidine (TMB reagent). The plate was sealed and incubated at RT for 30 min.
100 μL of stop solution was added to each well and the underside of the plate wiped with a lint-free tissue, prior to spectrophotometric determination. Absorbance from each well was read at 450 nm within 30 min of the addition of the stop solution.
The percentage of phospho-cdc2 was calculated compared to DMSO control and plotted versus the concentration of inhibitor using GraphPad Prism. Data was fitted using non-linear regression analysis and IC50 values generated.

[3] = CLint estimates using human liver microsomes (Method 4); type: in vitro ADME; conditions: pH 7.4, 1 μM compound, read-out: Mics - CLint (HLM CLint)
Procedure, shortened: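 Compound at 1 μM (0.1% DMSO) incubated with human liver microsomes (0.5 mg protein/mL) in 0.1 M phosphate pH 7.4 at 37 °C, started with 1 mM NADPH. Samples taken 2–50 min, quenched in methanol, measured by LC/MS/MS (MRM). Half-life and CLint derived from the slope of ln peak area versus time.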

[4] = target: T2, human ether a go-go related gene (hERG) K′ channel (Homo sapiens, UniProt Q12809); assay: hERG activity, IonWorks patch clamp electrophysiology (Method 6); type: cell-based
T2 construct: Essen BioScience
Experimental: Method 6: Determination of hERG Activity
Compounds were tested for inhibition of the human ether a go-go related gene (hERG) K′ channel using IonWorks patch clamp electrophysiology at Essen BioScience. 8-Point concentration-response curves of the effect of compound on hERG current as a percentage of pre-compound signal were generated using 3-fold serial dilutions from 11 μM and results are reported as IC50 in μM.

[5] = Kinetic solubility in PBS buffer (Method 5); type: physicochemical; conditions: aqueous buffer, kinetic from dmso stock; PBS buffer pH 7.4
Experimental: [formula] [formula] [formula] where V=Incubation volume (μL)/number of cells Method 5: Determination of Kinetic Solubility (in PBS Buffer)
Test compounds (5 μL; 10 mM DMSO stock) were added to 245 μL 10 of PBS buffer pH 7.4 (Dulbecco A) in a Millipore MultiScreen® Solubility Filter plate and mixed at 300 rpm at room temperature on a plate shaker for 90 minutes. Meanwhile 5-points calibration curves for each compound were established in a mixture of acetonitrile/PBS buffer 15 (top concentration 200 μM). After filtration and matrix match, the calibration and assay plates were analysed on a Bioteck Synergy 4 plate reader (240-400 nm). Final concentration of the test compound in the filtrate was calculated using the slope of the calibration curve. All 20 measurements were carried out in triplicate.

T1 sequence (P30291 whole entry): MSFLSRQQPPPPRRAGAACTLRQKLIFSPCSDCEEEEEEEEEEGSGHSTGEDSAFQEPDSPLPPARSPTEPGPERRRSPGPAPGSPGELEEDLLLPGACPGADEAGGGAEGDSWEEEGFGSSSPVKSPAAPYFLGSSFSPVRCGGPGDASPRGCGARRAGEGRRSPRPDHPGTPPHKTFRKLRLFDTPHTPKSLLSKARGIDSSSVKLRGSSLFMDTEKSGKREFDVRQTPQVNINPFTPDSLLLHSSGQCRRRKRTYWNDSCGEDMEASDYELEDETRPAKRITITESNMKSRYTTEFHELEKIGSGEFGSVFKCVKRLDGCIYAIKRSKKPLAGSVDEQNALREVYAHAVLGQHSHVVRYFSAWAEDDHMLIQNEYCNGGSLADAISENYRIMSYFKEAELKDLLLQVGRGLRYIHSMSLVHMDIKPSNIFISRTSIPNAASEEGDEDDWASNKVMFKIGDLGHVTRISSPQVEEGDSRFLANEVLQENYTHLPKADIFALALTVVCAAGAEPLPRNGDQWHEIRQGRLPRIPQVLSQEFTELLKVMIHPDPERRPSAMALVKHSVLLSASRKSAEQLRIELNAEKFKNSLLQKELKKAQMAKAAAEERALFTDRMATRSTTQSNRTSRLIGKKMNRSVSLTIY
T2 sequence (Q12809 whole entry): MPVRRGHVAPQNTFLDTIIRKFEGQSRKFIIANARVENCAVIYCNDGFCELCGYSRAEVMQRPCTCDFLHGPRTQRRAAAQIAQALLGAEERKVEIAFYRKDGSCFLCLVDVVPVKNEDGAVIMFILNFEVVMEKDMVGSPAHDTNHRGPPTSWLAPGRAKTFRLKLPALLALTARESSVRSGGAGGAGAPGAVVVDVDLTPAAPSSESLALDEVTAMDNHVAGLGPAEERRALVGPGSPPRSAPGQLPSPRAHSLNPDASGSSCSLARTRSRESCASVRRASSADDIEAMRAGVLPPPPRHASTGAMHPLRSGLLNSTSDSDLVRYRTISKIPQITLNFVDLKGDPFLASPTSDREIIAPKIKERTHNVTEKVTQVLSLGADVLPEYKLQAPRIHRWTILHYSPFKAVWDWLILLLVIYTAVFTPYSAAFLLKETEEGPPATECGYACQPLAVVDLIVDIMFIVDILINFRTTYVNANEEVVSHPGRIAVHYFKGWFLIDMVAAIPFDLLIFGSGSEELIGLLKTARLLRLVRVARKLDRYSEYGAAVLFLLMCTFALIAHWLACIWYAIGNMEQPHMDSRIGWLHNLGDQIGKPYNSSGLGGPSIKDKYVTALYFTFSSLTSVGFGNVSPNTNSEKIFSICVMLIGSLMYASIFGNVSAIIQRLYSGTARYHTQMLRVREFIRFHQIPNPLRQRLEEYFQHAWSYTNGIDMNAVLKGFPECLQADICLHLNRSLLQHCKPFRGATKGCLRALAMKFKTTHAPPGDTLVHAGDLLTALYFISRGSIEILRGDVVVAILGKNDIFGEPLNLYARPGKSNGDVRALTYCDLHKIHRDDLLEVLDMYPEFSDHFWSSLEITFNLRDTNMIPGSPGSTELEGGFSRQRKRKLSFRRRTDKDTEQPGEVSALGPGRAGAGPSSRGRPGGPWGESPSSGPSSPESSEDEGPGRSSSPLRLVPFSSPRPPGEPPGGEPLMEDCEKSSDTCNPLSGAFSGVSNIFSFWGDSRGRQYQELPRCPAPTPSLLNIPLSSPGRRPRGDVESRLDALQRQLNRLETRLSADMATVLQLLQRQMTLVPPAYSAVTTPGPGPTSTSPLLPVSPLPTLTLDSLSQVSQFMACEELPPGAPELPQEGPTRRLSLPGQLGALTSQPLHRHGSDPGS

For `CN1CN(c2c(Cl)cccc2Cl)C(=O)c2cnc(Nc3ccc(N4CCNCC4)c(CO)c3)nc21` [Example 10, 3-(2,6-Dichlorophenyl)-7-((3-(hydroxymethyl)-4-(piperazin-1-yl)phenyl)amino)-1-methyl-2,3-dihydropyrimido[4,5-d]pyrimidin-4(1H)-one], the IC50 [1] was ≤ 0.01 µM, the IC50 [2] was 0.1 to 1 µM and the microsomal CLint at 1 μM [3] was ≤ 15 µL/min/mg. The IC50 [4] was > 10 µM.

In the case of `CN1CN(c2c(Cl)cccc2Cl)C(=O)c2cnc(Nc3ccc(CN4CCNCC4)cc3)nc21` [Example 12, 3-(2,6-Dichlorophenyl)-1-methyl-7-((4-(piperazin-1-ylmethyl)phenyl)amino)-2,3-dihydropyrimido[4,5-d]pyrimidin-4(1H)-one], the IC50 [1] is reported as 0.01 to 0.1 µM, the IC50 [2] is reported as 0.1 to 1 µM and the microsomal CLint at 1 μM [3] is reported as ≤ 15 µL/min/mg. The IC50 [4] was > 10 µM.

With `CN1CN(c2c(Cl)cccc2Cl)C(=O)c2cnc(Nc3ccc(N4CCN[C@H](CO)C4)cc3)nc21` [Example 20, (S)-3-(2,6-Dichlorophenyl)-7-((4-(3-(hydroxymethyl)piperazin-1-yl)phenyl)amino)-1-methyl-2,3-dihydropyrimido[4,5-d]pyrimidin-4(1H)-one] the IC50 [1] was ≤ 0.01 µM, the IC50 [2] was 0.1 to 1 µM and the microsomal CLint at 1 μM [3] was 15 to 50 µL/min/mg. The IC50 [4] was > 10 µM.

With `CN1CCN(Cc2ccc(Nc3ncc4c(n3)N(C)CN(c3c(Cl)cccc3Cl)C4=O)cc2)CC1` [Example 29, 3-(2,6-Dichlorophenyl)-1-methyl-7-((4-((4-methylpiperazin-1-yl)methyl)phenyl)amino)-2,3-dihydropyrimido[4,5-d]pyrimidin-4(1H)-one] the IC50 [1] was 0.01 to 0.1 µM, the IC50 [2] was 0.1 to 1 µM and the microsomal CLint at 1 μM [3] was ≥ 50 µL/min/mg.

For `CN1CN(c2c(Cl)cccc2Cl)C(=O)c2cnc(Nc3ccc(N4CCNCC4)cc3)nc21` [drawing 383], the solubility kinetic at 90 min [5] was > 150 µM.

For `Cc1cc(Nc2ncc3c(n2)N(C)CN(c2c(Cl)cccc2Cl)C3=O)ccc1N1CCNCC1` [drawing 385], the solubility kinetic at 90 min [5] was > 150 µM.

With `Cc1cn(-c2c(Cl)cccc2Cl)c(=O)c2cnc(Nc3ccc(N4CCNCC4)cc3)nc12` [reference compound] the solubility kinetic at 90 min [5] was < 50 µM.

In the case of `Cc1cc(Nc2ncc3c(=O)n(-c4c(Cl)cccc4Cl)cc(C)c3n2)ccc1N1CCNCC1` [reference compound], the solubility kinetic at 90 min [5] is reported as < 50 µM.
